How the values were obtained:
[1] = molecular target: T1, purified bovine adrenal G6PDH (Bos taurus, UniProt F1MMK2); assay: Inhibition of purified bovine adrenal G6PDH; assay type: biochemical; conditions: for inhibition at 1 µM: Conc. 1 μm; for inhibition at 1 µM / inhibition at 10 µM: read-out: Percent Inhibition (G6PDH); for inhibition at 10 µM: Conc. 10 μm
T1 construct: full-length, wild type, no tag
Text: The compounds listed below are screened as inhibitors of purified bovine adrenal G6PDH activity as one predictor of cancer preventive action. The assay for testing the inhibition of purified bovine adrenal G6PDH is according to the procedure by Oertel, G. W. and Rebelein, I. in Biochem. Biophys. Acta, 184, 459-460 (1969). The results are given below in Table I:
Both of the above tests, i.e., the inhibition of mammalian glucose-6-phosphate dehydrogenase (G6PDH) and the inhibition of tumor promoter (TPA) stimulation of ^3 H-thymidine incorporation in mouse epidermis are recognized as indicators of cancer prophylactic activity. The following Table compares the efficacy of representative compounds of the present invention in these two tests with that of DHEA: […]

[2] = test system: TPA (Tumor Promoter) Stimulation of Mouse Epidermal DNA; assay: Inhibition of TPA stimulation of mouse epidermal DNA synthesis (3H-thymidine incorporation), oral; assay type: in vivo, mouse (ICR male); conditions: oral, single administration
Text: Synthesis rate by orally administered steroids.
The inhibition of tumor promoter stimulation of mouse epidermal DNA synthesis rate by steroids may also contribute to cancer preventive activity. The following assay is used:
ICR male mice (7-9 weeks old) were shaved on the back 1-2 days before use. Only mice showing no hair regrowth were used. Animals were orally intubated with a particular steroid suspended by homogenization in sesame oil or with sesame oil alone (controls). One hour later TPA (10 μg in 0.2 ml of acetone) or acetone vehicle was applied topically to the shaved skin. Twenty hours later, mice were injected i.p. with 60 μCi of ^3 H-thymidine 20 minutes before sacrifice. The animals were killed by cervical dislocation and the residual hair was removed with a depilatory agent. Epidermal scrapings were prepared according to the procedures of Hennings et al. (Cancer Res. 28, 53, 1968), homogenized in distilled water at 4° C., and the macromolecules precipitated with 0.4N trichloroacetic acid (TCA). Following 6 washes with absolute ethanol at room temperature, the nucleic acids were hydrolyzed with 0.5N TCA at 70° C. for 5 minutes. The hydrolysate (0.2 ml aliquots) were counted in an Intertechnique scintillation counter and assayed for DNA by the diphenylamine reaction.
The data are expressed as counts per minute (cpm) of tritium per μg of DNA.
A similar oral dose-response experiment with compound 16 and DHEA was performed.
Both of the above tests, i.e., the inhibition of mammalian glucose-6-phosphate dehydrogenase (G6PDH) and the inhibition of tumor promoter (TPA) stimulation of ^3 H-thymidine incorporation in mouse epidermis are recognized as indicators of cancer prophylactic activity. The following Table compares the efficacy of representative compounds of the present invention in these two tests with that of DHEA:
Male ICR mice were orally intubated with steroid suspended in sesame oil (0.5 ml/mouse) at the indicated dose. Mice not receiving steroid were given sesame oil alone. One hour later mice received topical application of TPA and 20 hours later the rate of ^3 H-thymidine incorporation into the epidermis was determined as described in Table 4.
Male ICR mice were orally intubated with steroid suspended in sesame oil (0.5 ml/mouse) at the indicated dose. Mice not receiving steroid were given sesame oil alone. One hour later mice received topical application of TPA, and 20 hours later the rate of ^3 H-thymidine incorporation into the epidermis was determined as described in Table 4.

[3] = test system: [3H]DMBA binding to skin DNA; assay: [3H]DMBA binding to skin DNA, oral steroid; assay type: in vivo, mouse (male A/J); conditions: 400 mg/kg p.o.; 12 hours
Method: Male A/J mice were orally intubated with steroid suspended in sesame oil (0.5 ml/mouse) at the indicated dose. Mice not receiving steroid were given sesame oil alone. Food restricted mice received approximately 60% of food of Ad libitum fed for two weeks. One hour after oral intubation, topical [^3 H]DMBA was applied to the skin, and the amount bound to DNA was determined 12 hours later as described in Table 4.
Male A/J mice were orally intubated with steroid suspended in sesame oil (0.5 ml/mouse) at the indicated dose. Mice not receiving steroid were given sesame oil alone. One hour after oral intubation, topical [^3 H]DMBA was applied to the skin, and the amount bound to DNA was determined 12 hours later as described in Table 4.

[4] = Anti-obesity test (body weight, food consumption); assay type: in vivo, mouse (male A/J); conditions: for weekly weight (Table 13): 0.54% in food; for mean weekly weight ± S.D.: 0.36% of diet, n = 5
Method: Male A/J mice (5 weeks old) were obtained from the Jackson Laboratory and were housed in polycarbonate cages (5 mice/cage) in animal quarters maintained at 24°±1° C. with 12 hours of light and 12 hours of darkness each day. One week after arrival, the mice were placed on a chow diet containing varying concentrations of DHEA or other steroid. Animals were weighed weekly; food consumption was determined weekly by subtracting the amount of food remaining in the cage from the amount added.
Male A/J (5 weeks old) were obtained from the Jackson Laboratory and were housed in polycarbonate cages (5 mice/cage) in animal quarters maintained at 24°±1° C. with 12 hours of light and 12 hours of darkness each day. One week after arrival, the mice were placed on a diet containing either DHEA, 19, or without steroid. Animals were weighed weekly. The concentration of DHEA or 19 used in the food was 0.54%.
Male A/J mice (5 weeks old) were obtained from the Jackson Laboratory and were housed in polycarbonate cages (5 mice/cage) in animal quarters maintained at 24°±1° C. with 12 hours of light and 12 hours of darkness each day. One week after arrival, the mice were placed on a show diet containing DHEA, 16, or 21 at 0.36%. Animals were weighed weekly.

rat uterus = assay: Estrogenic and anti-estrogenic activity (uterine weight, s.c., CD rats); assay type: in vivo, rat (female CD); conditions: for Mean Uterine Weight ± S.D.: 60 mg/kg s.c., 3 days, Tables 16 and 17
Method: Female CD rats, 26-27 days old, were used. Rats were injected subcutaneously for 3 days with either DHEA or 16 in propylene glycol. Control rats received propylene glycol alone. The rats were killed on the 4th day and the uteri were removed and weighed.
Female CD rats, 26-27 days old, were injected subcutaneously for 3 days with one of the compounds of the present invention at 60 mg/kg in propylene glycol. Controls received propylene glycol alone. On the 4th day the rats were killed and the uteri were dissected out and weighed.

[5] = test system: seminal vesicles plus prostate glands; assay: Androgenic and anti-androgenic activity (seminal vesicle plus prostate weight); assay type: in vivo, mouse (male A/J)
Method: Male A/J mice (5 weeks old) were obtained from the Jackson Laboratory and were housed in polycarbonate cages (5 mice/cage) in animal quarters maintained at 24°±1° C. with 12 hours of light and 12 hours of darkness each day. One week after arrival, mice were placed on a chow diet containing either 0.18% or 0.09% 16 or without steroid. Mice were weighed weekly. After 4 weeks, the mice were killed, and the seminal vesicles plus prostate glands were dissected out and weighed.
(§1) (a) Male A/J mice (5 weeks old) were obtained from the Jackson Laboratory and were housed in polycarbonate cages (5 mice/cage) in animal quarters maintained at 24°[…] C. with 12 hours of light and 12 hours of darkness each day. One week after arrival, the mice were placed on a chow diet containing one of the test compounds of the present invention at 0.36%. After 4 weeks of treatment, the above mice were killed, and the seminal vesicles and prostate glands were dissected out and weighed.

[6] = test system: rat uterus; mouse seminal vesicle plus prostate; assay: Sex steroid hormonal or anti-hormonal activity (estrogenic, anti-estrogenic, androgenic, anti-androgenic); conditions: in vivo
Method: Female CD rats, 26-27 days old, were injected subcutaneously for 3 days with one of the compounds of the present invention at 60 mg/kg in propylene glycol. Controls received propylene glycol alone. On the 4th day the rats were killed and the uteri were dissected out and weighed. The results are given below:
as §1

[7] = test system: seminal vesicles plus prostate glands; assay: Androgenic and anti-androgenic activity (seminal vesicle plus prostate weight); assay type: in vivo, mouse (male A/J); conditions: con't. experiment; five weeks; DHEA 0.54%; n = 5
[8] = test system: (3H) DMBA binding to skin DNA; assay: [3H]DMBA binding to mouse skin DNA, topical steroid; assay type: in vivo, mouse (A/J); conditions: topical; A/J mouse
Text: Skin tumors can be induced in the mouse either by weekly application of a carcinogen such as […] (DMBA), or alternatively,by a single sub-threshold dose of the carcinogen followed by twice weekly applications of the tumor promoter tetradecanoylphorbol-13-acetate (TPA). In order to exert its carcinogenic effect, DMBA must be metabolized by an NADPH-dependent mixed-function oxidase to chemically reactive intermediates which bind covalently to DNA and produce mutations leading to malignant transformation. […] This effect of DHEA very probably is a result of the inhibition of G6PDH and lowering of the intracellular pool of NADPH, which is a co-factor for the mixed-function oxidase activation of DMBA.
Binding of [^3 H]DMBA to mouse skin DNA was determined as described in Pashko, L. L., and Schwartz, A. G. (1983), Effect of food restriction, dehydroepiandrosterone, or obesity on the binding of ^3 H-7,12-dimethylbenz(a)-anthracene to mouse skin DNA, J. Gerontol., 38, 8-12. Values are mean±SD for 3 individual determinations, with pooled tissue from 2 mice used for each determination. DHEA or testosterone (400 ug in 0.2 ml acetone) was applied to the skin one hour before [^3 H]DMBA. The mean weight of the food restricted mice was 18.5±1.0 gm, n=6, of the ad libitum fed, 27.4±1.0 gm, n=6, of the ad libitum fed treated with DHEA, 28.2±0.9 gm, n=6, and of the ad libitum fed treated with testosterone, 28.3±0.9 gm, n=6, following two weeks of feeding. The average food consumed was, in gm/mouse/day, 2.2, 3.8, 3.8 and 4.0 for the food restricted, ad libitum fed, ad libitum fed plus DHEA, and ad libitum fed plus testosterone groups, respectively.

T1 sequence (F1MMK2 31-70): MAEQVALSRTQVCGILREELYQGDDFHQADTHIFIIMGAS
T1 sequence (F1MMK2 101-575): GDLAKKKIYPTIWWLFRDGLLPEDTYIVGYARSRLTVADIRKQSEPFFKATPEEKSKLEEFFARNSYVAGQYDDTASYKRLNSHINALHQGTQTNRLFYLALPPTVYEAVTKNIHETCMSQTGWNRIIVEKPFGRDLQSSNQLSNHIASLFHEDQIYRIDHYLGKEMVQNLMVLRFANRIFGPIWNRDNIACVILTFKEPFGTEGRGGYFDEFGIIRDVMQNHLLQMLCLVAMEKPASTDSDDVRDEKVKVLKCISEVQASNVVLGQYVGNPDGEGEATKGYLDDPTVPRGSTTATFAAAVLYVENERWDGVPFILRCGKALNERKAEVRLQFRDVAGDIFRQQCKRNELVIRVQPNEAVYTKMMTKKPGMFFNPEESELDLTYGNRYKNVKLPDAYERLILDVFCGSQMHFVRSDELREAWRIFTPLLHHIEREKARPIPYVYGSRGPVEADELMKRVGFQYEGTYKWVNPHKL

Q: With `C[C@H]1CC[C@@]2(C)C(=CC[C@@H]3[C@@H]2CC[C@]2(C)C(=O)[C@H](O)C[C@@H]32)C1` [Compound 19] as the compound, how does the “G6PDH inhibition compared with DHEA (in words)” value [1] read?
A: more effective inhibitorsof G6PDH than is DHEA

Q: What about the inhibition at 1 µM [1] of the same compound?
A: 29%

Q: What about the inhibition at 10 µM [1] of the same compound?
A: 64%

Q: And the “TPA stimulation in 3H-thymidine incorporation (in words)” value [2]?
A: to a degree comparable to that produced by food restriction at doses well below 400 mg/kg

Q: What about the “SPECIFIC ACTIVITY ([3H]DMBA bound to skin DNA)” value [3] of the same compound?
A: 20.4 ± 1.1 cpm/ug DNA

Q: And the “anti-weight effect (in words)” value ([4]; 400 mg/kg repeated (DHEA), cancer preventive dosages (19, 20))?
A: do not produce an anti-weight effect

Q: And the “weekly weight (Table 13)” value ([4]; week 0)?
A: 21.1 ± 0.8

Q: And the “weekly weight (Table 13)” value ([4]; week 1)?
A: 19.1 ± 0.9

Q: What about the “weekly weight (Table 13)” value ([4]; week 2) of the same compound?
A: 18.4 ± 1.0

Q: What about the “weekly weight (Table 13)” value ([4]; week 3) of the same compound?
A: 18.7 ± 1.4

Q: What about the “weekly weight (Table 13)” value ([4]; week 4) of the same compound?
A: 19.7 ± 1.1

Q: And the “weekly weight (Table 13)” value ([4]; week 5)?
A: 20.6 ± 0.4

Q: What about the “Mean Uterine Weight ± S.D.” value (rat uterus) of the same compound?
A: 2.16 ± 0.5 mg/100 gm body weight

Q: And the “estrogenic / anti-estrogenic effect, uterine weight (in words)” value (rat uterus; s.c., 60 mg/kg or higher, female CD rats)?
A: no apparent estrogenic nor anti-estrogenic activity

Q: What about the “androgenic / anti-androgenic effect, seminal vesicle plus prostate weight (in words)” value ([5]; diet, male A/J mice) of the same compound?
A: no significant effect on seminal vesicle plus prostate gland weight

Q: And the “estrogenic, anti-estrogenic, androgenic, anti-androgenic activity (in words)” value [6]?
A: neither estrogenic, anti-estrogenic, androgenic, nor anti-androgenic activity

Q: And the “Mean Seminal Vesicle plus Prostate Weight ± S.D.” value [7]?
A: 6.45 ± 0.65 mg/100 gm body weight

Q: With `C[C@H]1CC[C@@]2(C)C(=CC[C@@H]3[C@@H]2CC[C@]2(C)C(=O)[C@H](C)C[C@@H]32)C1` [Compound 21] as the compound, how does the “G6PDH inhibition compared with DHEA (in words)” value [1] read?
A: more effective inhibitorsof G6PDH than is DHEA

Q: And the inhibition at 1 µM [1]?
A: 36%

Q: And the inhibition at 10 µM [1]?
A: 48%

Q: And the “mean weekly weight ± S.D.” value ([4]; week 0)?
A: 22.7 ± 1.9 grams

Q: What about the “mean weekly weight ± S.D.” value ([4]; week 1) of the same compound?
A: 20.1 ± 2.1 grams

Q: What about the “mean weekly weight ± S.D.” value ([4]; week 2) of the same compound?
A: 19.9 ± 2.3 grams

Q: And the “mean weekly weight ± S.D.” value ([4]; week 3)?
A: 22.2 ± 2.3 grams

Q: And the “Mean Uterine Weight ± S.D.” value (rat uterus)?
A: 1.76 ± 0.21 mg/100 gm body weight

Q: What about the “Mean Seminal Vesicle plus Prostate Weight ± S.D.” value ([5]; 0.36% of diet, 4 weeks, n = 5) of the same compound?
A: 5.1 ± 1.4 mg/100 gm body weight

Q: What about the “estrogenic, anti-estrogenic, androgenic, anti-androgenic activity (in words)” value [6] of the same compound?
A: neither estrogenic, anti-estrogenic, androgenic, nor anti-androgenic activity

Q: With `C[C@]12CC[C@H]3[C@@H](CCC4=CC(=O)CC[C@@]43C)[C@@H]1CC[C@@H]2O` [testosterone] as the compound, how does the “rate of binding of topically applied 3H-DMBA to skin DNA (in words)” value [8] read?
A: without inhibitory effect

Source: patent publication US5804576A, “Derivatives of 5-androsten-17-ones and 5-androstan-17-ones” (Research Corporation Technologies, Inc., priority 1986, dated 1998)
